Results published in patent publication US9108921B2, “Therapeutic compounds and compositions” (AGIOS PHARMACEUTICALS, INC, priority 2014, dated 2015).

How the values were obtained:
PKR R510Q = PKR R510Q (Homo sapiens, UniProt P30613, R510Q); experiment: PKR Mutant Assay, AC50 against PKR R510Q; format: biochemical; conditions: mutant PKR R510Q enzyme
Method in brief: (§1)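 Human PKR (WT or mutant, 80-400 ng/well) in 50 mM Tris pH 7.5, 100 mM KCl, 5 mM MgCl2, 1 mM DTT, 0.03% BSA with PEP 0.1-0.5 mM, NADH 180 uM and LDH, preincubated 60 min at room temperature with compound (11-point 3-fold series from 100 μM final, 1% DMSO). ADP 0.22-1.65 mM started reaction; A340 followed.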

PKR R532W = PKR R532W (Homo sapiens, UniProt P30613, R532W); experiment: PKR Mutant Assay, AC50 against PKR R532W; format: biochemical; conditions: mutant PKR R532W enzyme
Sequence of PKR R532W (P30613 whole entry R532W): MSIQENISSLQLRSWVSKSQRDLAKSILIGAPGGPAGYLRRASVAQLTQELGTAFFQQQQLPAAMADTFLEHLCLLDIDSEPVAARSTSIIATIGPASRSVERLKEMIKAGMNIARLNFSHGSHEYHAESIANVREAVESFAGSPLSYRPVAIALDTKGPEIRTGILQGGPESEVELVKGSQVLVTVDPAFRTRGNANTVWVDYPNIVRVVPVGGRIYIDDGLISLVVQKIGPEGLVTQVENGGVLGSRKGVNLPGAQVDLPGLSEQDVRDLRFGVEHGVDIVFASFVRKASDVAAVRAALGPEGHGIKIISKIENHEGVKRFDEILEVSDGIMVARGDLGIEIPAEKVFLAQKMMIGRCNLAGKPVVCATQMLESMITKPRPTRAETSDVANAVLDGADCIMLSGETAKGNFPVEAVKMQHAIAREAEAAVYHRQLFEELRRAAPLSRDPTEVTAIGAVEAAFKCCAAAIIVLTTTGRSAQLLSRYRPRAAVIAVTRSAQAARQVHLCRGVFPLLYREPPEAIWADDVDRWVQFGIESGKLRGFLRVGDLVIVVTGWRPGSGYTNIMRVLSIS
Method in brief: as §1

PKR WT [1] = biological target: T1, PKR WT (Homo sapiens, UniProt P30613); experiment: PKR WT cell based AC50 assay; conditions: wild type PKR
T1 sequence (P30613 whole entry): as the sequence (P30613 whole entry R532W) above, with W532R counted along it

PKR WT [2] = biological target: T1, PKR WT; experiment: PKR WT enzymatic AC50 assay; format: biochemical; conditions: wild type PKR
Method in brief: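 Steps: compound added to wells, then reaction mix lacking ADP; 60 min room-temperature hold; ADP (0.22-1.65 mM) added to start; A340 monitored at room temperature via PEP/LDH/NADH coupling. Top final compound concentration 100 μM, 3-fold dilutions over 11 points.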

Sequence of PKR R510Q (P30613 whole entry R510Q): as the sequence (P30613 whole entry R532W) above, with R510Q, W532R counted along it

| SMILES | AC50 (PKR R510Q) [nM] | AC50 (PKR R532W) [nM] | AC50 (PKR WT [1]) [nM] | AC50 (PKR WT [2]) [nM] |
| --- | --- | --- | --- | --- |
| CCCCC1(O)CCN(C(=O)c2ccc(NS(=O)(=O)c3cccc4cccnc34)cc2)CC1 [Compound 167, N-(4-(4-butyl-4-hydroxypiperidine-1-carbonyl)phenyl)quinoline-8-sulfonamide] | < 100 | < 100 | < 100 | < 100 |
| C=C(CC1(O)CCN(C(=O)c2ccc(NS(=O)(=O)c3cccc4scnc34)cc2)CC1)C(F)(F)F [Compound 390, N-(4-(4-hydroxy-4-(2-(trifluoromethyl)allyl)piperidine-1-carbonyl)phenyl)benzo[d]thiazole-4-sulfonamide] | < 100 | < 100 | < 100 | < 100 |
| Cc1nc(F)ccc1C1(O)CCN(C(=O)c2ccc(NS(=O)(=O)c3ccc(F)c4cccnc34)cc2)CC1 [Compound 229, 5-fluoro-N-(4-(4-(6-fluoro-2-methylpyridin-3-yl)-4-hydroxypiperidine-1-carbonyl)phenyl)quinoline-8-sulfonamide] | 101 to 1000 | 101 to 1000 | 101 to 1000 | 101 to 1000 |
| Cc1cc(F)ccc1C1(O)CCN(C(=O)c2ccc(NS(=O)(=O)c3cccc4cccnc34)cc2)CC1 [Compound 138, N-(4-(4-(4-fluoro-2-methylphenyl)-4-hydroxypiperidine-1-carbonyl)phenyl)quinoline-8-sulfonamide] | < 100 | < 100 | < 100 | < 100 |
| Cc1cc(C(=O)N2CCC(O)(c3ccccc3Cl)CC2)ccc1NS(=O)(=O)c1cccc2nccnc12 [Compound 119, N-(4-(4-(2-chlorophenyl)-4-hydroxypiperidine-1-carbonyl)-2-methylphenyl)quinoxaline-5-sulfonamide] | < 100 | < 100 | < 100 | < 100 |
| Cc1ccccc1C1(O)CCN(C(=O)c2ccc(NS(=O)(=O)c3cccc4cccnc34)cc2)CC1 [Compound 103, N-(4-(4-hydroxy-4-(o-tolyl)piperidine-1-carbonyl)phenyl)quinoline-8-sulfonamide] | < 100 | < 100 | < 100 | < 100 |
| O=C(c1ccc(NS(=O)(=O)c2cccc(Cl)c2Cl)cc1)N1CCC(O)(Cc2ccccc2)CC1 [Compound 237, N-(4-(4-benzyl-4-hydroxypiperidine-1-carbonyl)phenyl)-2,3-dichlorobenzenesulfonamide] | 101 to 1000 | 101 to 1000 | 101 to 1000 | 101 to 1000 |
| Cc1ccc(C2(O)CCN(C(=O)c3ccc(NS(=O)(=O)c4cccc5cccnc45)cc3)CC2)c(Cl)c1 [Compound 190, N-[4-[4-(2-chloro-4-methyl-phenyl)-4-hydroxy-piperidine-1-carbonyl]phenyl]quinoline-8-sulfonamide] | 101 to 1000 | < 100 | 101 to 1000 | < 100 |
| CC(CC1(O)CCN(C(=O)c2ccc(NS(=O)(=O)c3cccc4scnc34)cc2)CC1)C(F)(F)F (stereo not shown) [Compound 391] | < 100 | < 100 | < 100 | < 100 |
| O=C(c1ccc(NS(=O)(=O)c2cccc3scnc23)cc1)N1CCC(O)(CCC(F)=C(F)F)CC1 [Compound 395, N-(4-(4-hydroxy-4-(3,4,4-trifluorobut-3-enyl)piperidine-1-carbonyl)phenyl)benzo[d]thiazole-4-sulfonamide] | 101 to 1000 | < 100 | 101 to 1000 | < 100 |
| O=C(c1ccc(NS(=O)(=O)c2cccc3cccnc23)cc1)N1CCC(O)(c2cc(F)ccc2Cl)CC1 [Compound 166] | 101 to 1000 | < 100 | < 100 | < 100 |
| O=C(c1ccc(NS(=O)(=O)c2cccc3cccnc23)cc1)N1CCC(O)(C2CC2)CC1 [Compound 260, N-(4-(4-cyclopropyl-4-hydroxypiperidine-1-carbonyl)phenyl)quinoline-8-sulfonamide] | 1010 to 10000 | 101 to 1000 | 1010 to 10000 | 101 to 1000 |
| Cc1cc(NS(=O)(=O)c2cccc3cccnc23)ccc1C(=O)N1CCC(O)(c2ccccc2Cl)CC1 [Compound 141, N-(4-(4-(2-chlorophenyl)-4-hydroxypiperidine-1-carbonyl)-3-methylphenyl)quinoline-8-sulfonamide] | 101 to 1000 | < 100 | < 100 | < 100 |
| O=C(c1ccc(NS(=O)(=O)c2cccc3cccnc23)c2ccccc12)N1CCC(O)(c2ccccc2Cl)CC1 [Compound 226, N-(4-(4-(2-chlorophenyl)-4-hydroxypiperidine-1-carbonyl)naphthalen-1-yl)quinoline-8-sulfonamide] | 101 to 1000 | < 100 | 101 to 1000 | < 100 |
| COCCC1(O)CCN(C(=O)c2ccc(NS(=O)(=O)c3cccc4cccnc34)cc2)CC1 [Compound 225, N-[4-[4-hydroxy-4-(2-methoxyethyl)piperidine-1-carbonyl]phenyl]quinoline-8-sulfonamide] | 101 to 1000 | 101 to 1000 | 101 to 1000 | < 100 |
| O=C(c1ccc(NS(=O)(=O)c2cccc3nccnc23)cc1)N1CCC(O)(CCCC(F)(F)F)CC1 [Compound 397, N-(4-(4-hydroxy-4-(4,4,4-trifluorobutyl)piperidine-1-carbonyl)phenyl)quinoxaline-5-sulfonamide] | < 100 | < 100 | < 100 | < 100 |
| O=C(c1ccc(NS(=O)(=O)c2cccc3scnc23)cc1)N1CCC(O)(CCC=C(F)F)CC1 [Compound 393, N-(4-(4-(4,4-difluorobut-3-en-1-yl)-4-hydroxypiperidine-1-carbonyl)phenyl)benzo[d]thiazole-4-sulfonamide] | 101 to 1000 | < 100 | < 100 | < 100 |
| CC(C)CCC1(O)CCN(C(=O)c2ccc(NS(=O)(=O)c3cccc4scnc34)cc2)CC1 [Compound 392, N-(4-(4-hydroxy-4-isopentylpiperidine-1-carbonyl)phenyl)benzo[d]thiazole-4-sulfonamide] | < 100 | < 100 | < 100 | < 100 |
| CC(C)CC1(O)CCN(C(=O)c2ccc(NS(=O)(=O)c3cccc4ocnc34)cc2)CC1 [Compound 379, N-(4-(4-hydroxy-4-isobutylpiperidine-1-carbonyl)phenyl)benzo[d]oxazole-4-sulfonamide] | 101 to 1000 | 101 to 1000 | 101 to 1000 | 101 to 1000 |
| CC(C)CC1(O)CCN(C(=O)c2ccc(NS(=O)(=O)c3cc(F)cc4sc(N)nc34)cc2)CC1 [Compound 145, 2-amino-6-fluoro-N-(4-(4-hydroxy-4-isobutylpiperidine-1-carbonyl)phenyl)benzo[d]thiazole-4-sulfonamide] | < 100 | < 100 | < 100 | < 100 |
| O=C(c1ccc(NS(=O)(=O)c2cccc3cccnc23)cc1)N1CCC(O)(c2ncccc2Cl)CC1 [Compound 191, N-(4-(4-(3-chloropyridin-2-yl)-4-hydroxypiperidine-1-carbonyl)phenyl)quinoline-8-sulfonamide] | 101 to 1000 | < 100 | < 100 | < 100 |
| O=C(c1ccc(NS(=O)(=O)c2cccc3cccnc23)cc1)N1CCC(O)(Cc2c(F)cccc2F)CC1 [Compound 120, N-(4-(4-(2,6-difluorobenzyl)-4-hydroxypiperidine-1-carbonyl)phenyl)quinoline-8-sulfonamide] | < 100 | < 100 | < 100 | < 100 |
| O=C(c1ccc(NS(=O)(=O)c2cccc3nccnc23)cc1)N1CCC(O)(CCC(F)=C(F)F)CC1 [Compound 398, N-(4-(4-hydroxy-4-(3,4,4-trifluorobut-3-enyl)piperidine-1-carbonyl)phenyl)quinoxaline-5-sulfonamide] | 101 to 1000 | < 100 | < 100 | < 100 |
| CC(C)CC1(O)CCN(C(=O)c2ccc(NS(=O)(=O)c3cccc4nccnc34)cc2OC(F)F)CC1 [Compound 213, N-(3-(difluoromethoxy)-4-(4-hydroxy-4-isobutylpiperidine-1-carbonyl)phenyl)quinoxaline-5-sulfonamide] | 101 to 1000 | < 100 | < 100 | < 100 |
| Nc1nc2c(S(=O)(=O)Nc3ccc(C(=O)N4CCC(O)(c5ccccc5Cl)CC4)cc3)cccc2s1 [Compound 407, 2-amino-N-(4-(4-(2-chlorophenyl)-4-hydroxypiperidine-1-carbonyl)phenyl)benzo[d]thiazole-4-sulfonamide] | < 100 | < 100 | < 100 | < 100 |
| O=C(c1ccc(NS(=O)(=O)c2cccc3cccnc23)cc1)N1CCC(O)(c2ccccc2C(F)(F)F)CC1 [Compound 126, N-(4-(4-hydroxy-4-(2-(trifluoromethyl)phenyl)piperidine-1-carbonyl)phenyl)quinoline-8-sulfonamide] | < 100 | < 100 | < 100 | < 100 |
| Nc1nc2c(S(=O)(=O)Nc3ccc(C(=O)N4CCC(O)(CCC(F)(F)F)CC4)cc3)cccc2s1 [Compound 430] | 101 to 1000 | < 100 | 101 to 1000 | < 100 |
| CC1(CC2(O)CCN(C(=O)c3ccc(NS(=O)(=O)c4cccc5cccnc45)cc3)CC2)CC1 [Compound 121, N-(4-(4-hydroxy-4-((1-methylcyclopropyl)methyl)piperidine-1-carbonyl)phenyl)quinoline-8-sulfonamide] | < 100 | < 100 | < 100 | < 100 |
